Read-outs that look alike come from different tables or passages of the source.
Key:
[1] = system: anesthetized rabbits; test: Electrocardiography in anesthetized rabbits; assay type: in vivo; conditions: anesthetized rabbit
Method: (§1) A dose-response study of test compound was conducted in anesthetized rabbits to assess the cardiac electrophysiologic profile established in the cellular ion channel assays.
(§2) Experiments were performed in propofol-fentanyl anesthetized closed-chest male rabbits. A body surface electrocardiogram (ECG) and an intra-cardiac His-bundle electrogram were continuously monitored and recorded during the studies, using a PoNeMah system and a Prucka electrophysiological recording system, respectively. Test compound was prepared on the day of study in a vehicle of PEG400:ethanol:water (1:1:1) at a dosing concentration of 30 mg/mL. Test compound (n=3) or vehicle (n=3) was given intravenously over 5 minutes via an infusion pump at incremental doses of 3, 10 and 30 mg/kg. The interval between doses was 10 minutes, allowing for a 5-minute test agent infusion and a 5-minute rest period. Blood was sampled at baseline (pre-drug infusion) and immediately at the end of each infusion. For the 30 mg/kg dose, additional blood samples were taken at 10, 20 and 30 minutes after the end of infusion.
(§3) PR interval, QRS duration and QT interval were averaged from a 1 minute ECG recording period at time of blood sampling. QT interval was corrected for heart rate effects using both Fridericia (QTcf) and Van der Water (QTcv) formulae. AH and HV intervals, representing A-V node conduction and His-Purkinje conduction, respectively, were assessed by manual measurements from the His-bundle electrogram. Data were expressed as percent change from pre-drug baseline (mean±SEM) for PR, QRS, AH and HV intervals as well as delta change from the pre-drug infusion baseline (mean±SEM) for QTc intervals. Changes of ≧10% in PR, QRS, and AH intervals, and 20% in HV interval, as well as >10 ms in QTc interval are considered significant based on experience with the model.

[2] = Electrocardiography in anesthetized rabbits; assay type: in vivo; conditions: male, blood, anesthetized rabbit, iv
Method: as §1, §2, §3

Structure (SMILES): CC(C)[C@@H](NC(=O)NCC(C)(C)O)C(=O)N1CC[C@](O)(c2ccc(Cl)cc2)C(C)(C)C1 [Compound I]
- NOEL dose (No Observed Effect Level) ([1]; iv infusion): 10 mg/kg
- QT effect Dose ([1]; iv infusion): 30 mg/kg
- QTcf, delta ([1]; iv infusion, at QT effect dose 30 mg/kg): 12 ms
- Cmax: Free drug at QT effect dose ([1]; iv, 30 mg/kg): 26 µM
- Cmax: Free drug at NOEL dose ([1]; iv, NOEL dose 10 mg/kg): 8.5 µM
- Cmax ([2]; 30 mg/kg, read-out: Cmax: Total drug at QT effect dose): 202 µM
- Cmax ([2]; NOEL dose 10 mg/kg, read-out: Cmax: Total drug at NOEL dose): 65.2 µM

Source: patent publication US8633226B2, “Piperidinyl derivative as a modulator of chemokine receptor activity” (Bristol-Myers Squibb Company, priority 2008, dated 2014)
